# Assay results: patent US6686393B1, “Pharmaceutical compositions having antiviral activity against human cytomegalovirus” (Murdock International Corporation, priority 1990, dated 2004)
# “And” between values parts separate entries of the source, which are not always exact repeats. Identical values can stand only once. “Also recorded” adds a separate entry of the source. Like-named read-outs stand apart in the source and are kept apart here.
# Columns and labels:
# [1] = system: human cytomegalovirus (HCMV), strain AD-169; assay: Antiviral test (plaque reduction) versus HCMV, strain AD-169, in MRC-5 cells; type: cell-based; conditions: for Activity in initial screening against HCMV in vitro: in words; for Number of Plaques: average of two wells; for inhibition at 0.0032 µg/mL: Human betaherpesvirus 5, AD169, MRC5, 0.0032 μg/ml
# [2] = system: HCMV, strain C8805-37 (DHPG-resistant); assay: microbe, parasite or virus in culture; type: cell-based, human cytomegalovirus; conditions: for inhibition at 10 µg/mL: Human betaherpesvirus 5, MRC5, 96 h, read-out: Percent Inhibition Compared to Controls; for inhibition at 0.01 µg/mL / inhibition at 0.032 µg/mL / inhibition at 0.1 µg/mL / inhibition at 0.32 µg/mL / inhibition at 1 µg/mL / inhibition at 3.2 µg/mL: Human betaherpesvirus 5, MRC5, read-out: Percent Inhibition Compared to Controls
# [3] = system: human cytomegalovirus (HCMV) strain AD-169; assay: Antiviral effect of different exposure times, HCMV strain AD-169 (plaque reduction); type: cell-based
# HCMV, strain AD-169 = assay: Virucidal test versus HCMV, strain AD-169; type: cell-based, human cytomegalovirus; conditions: in words
# 3T3 cells = conditions: mouse
# [4] = system: murine cytomegalovirus, strain Smith MSGV; assay: Antiviral test (plaque reduction) versus murine cytomegalovirus, strain Smith MSGV, in 3T3 cells; type: cell-based; conditions: Example 8
# [5] = Human betaherpesvirus 5, AD169, MRC5, read-out: % Reduction
# [6] = Example 3, cells exposed 4 days
# [7] = Table 9 summary, two values = two experiments
# [8] = Table 10 summary, DHPG resistant HCMV test
# [9] = 10 μg/ml, Example 2, ethanol stock (protohypericin in DMSO), cells exposed 6 or more days
# [10] = Human betaherpesvirus 5, AD169, MRC5, 0.01 μg/ml, Example 2, read-out: Percent Inhibition of Plaque Numbers (Compared to Virus Controls)
# [11] = Human betaherpesvirus 5, AD169, MRC5, 0.032 μg/ml, Example 2, read-out: Percent Inhibition of Plaque Numbers (Compared to Virus Controls)
# [12] = Human betaherpesvirus 5, AD169, MRC5, 0.1 μg/ml, Example 2, read-out: Percent Inhibition of Plaque Numbers (Compared to Virus Controls)
# [13] = Human betaherpesvirus 5, AD169, MRC5, 0.32 μg/ml, Example 2, read-out: Percent Inhibition of Plaque Numbers (Compared to Virus Controls)
# [14] = Human betaherpesvirus 5, AD169, MRC5, 1.0 μg/ml, Example 2, read-out: Percent Inhibition of Plaque Numbers (Compared to Virus Controls)
# [15] = statement in words on the plaque reduction results
# [16] = 0.0032 μg/ml, Example 1, DMSO stock
# [17] = 0.1 μg/ml, Example 1, DMSO stock
# [18] = 0.32 μg/ml, Example 1, DMSO stock
# [19] = 1.0 μg/ml, Example 1, DMSO stock
# [20] = 3.2 μg/ml, Example 1, DMSO stock
# [21] = 10 μg/ml, Example 1, DMSO stock
# [22] = Human betaherpesvirus 5, AD169, MRC5, 0.1 μg/ml, Example 1, DMSO stock, read-out: % Inhibition
# [23] = Human betaherpesvirus 5, AD169, MRC5, 0.32 μg/ml, Example 1, DMSO stock, read-out: % Inhibition
# [24] = Human betaherpesvirus 5, AD169, MRC5, 1.0 μg/ml, Example 1, DMSO stock, read-out: % Inhibition
# [25] = Human betaherpesvirus 5, AD169, MRC5, 3.2 μg/ml, Example 1, DMSO stock, read-out: % Inhibition
# [26] = Human betaherpesvirus 5, AD169, MRC5, 10 μg/ml, Example 1, DMSO stock, read-out: % Inhibition
# [27] = 0.32 μg/ml (second line so printed, r16, below 0.1)
smiles,measurement,setting,value
"O=C1c2ccccc2C(=O)c2c1ccc(O)c2O [Alizarin, alizarin]",Activity against HCMV,[1],show activity; also recorded: active
same,inhibition at 0.01 µg/mL,[1]; [5],0%
same,inhibition at 0.032 µg/mL,[1]; [5],0%
same,inhibition at 0.1 µg/mL,[1]; [5],0%
same,inhibition at 0.32 µg/mL,[1]; [5],0%
same,inhibition at 1 µg/mL,[1]; [5],0%
same,inhibition at 3.2 µg/mL,[1]; [5],0%
same,inhibition at 10 µg/mL,[1]; [5],96%
same,inhibition at 10 µg/mL,[2],97%
same,inhibition at 0.01 µg/mL,[2],0%
same,inhibition at 0.032 µg/mL,[2],19%
same,inhibition at 0.1 µg/mL,[2],0%
same,inhibition at 0.32 µg/mL,[2],0%
same,inhibition at 1 µg/mL,[2],21%
same,inhibition at 3.2 µg/mL,[2],75%
same,CD50,MRC-5 cells; [6],>10 µg/mL
same,CD50,MRC-5 cells; Example 5,> 10 µg/mL and ~13 µg/mL
same,CD50,MRC-5 cells; [7],>10 µg/mL
same,CD50,MRC-5 cells; [8],>10 µg/mL
"Cc1cc(O)c2c(c1)Cc1cc(O)cc(O)c1C2=O [Emodin Anthrone, emodin anthrone]",Percent Inhibition of Plaque Numbers (Compared to Virus Controls),"[1]; 3.2 μg/ml, Example 2",toxic
same,Percent Inhibition of Plaque Numbers (Compared to Virus Controls),[1]; [9],toxic
same,inhibition at 0.01 µg/mL,[1]; [10],0%
same,inhibition at 0.032 µg/mL,[1]; [11],0%
same,inhibition at 0.1 µg/mL,[1]; [12],0%
same,inhibition at 0.32 µg/mL,[1]; [13],0%
same,inhibition at 1 µg/mL,[1]; [14],0%
same,Activity in initial screening against HCMV in vitro,[1],not active
same,Activity against DHPG resistant HCMV strain,[2],shows activity; also recorded: active
same,Percent Inhibition Compared to Controls,[2],toxic
same,inhibition at 0.01 µg/mL,[2],0%
same,inhibition at 0.032 µg/mL,[2],0%
same,inhibition at 0.1 µg/mL,[2],0%
same,inhibition at 0.32 µg/mL,[2],0%
same,inhibition at 1 µg/mL,[2],24%
same,inhibition at 3.2 µg/mL,[2],100%
same,CD50,"MRC-5 cells; human, 4 days",2.6 µg/mL
"Cc1cc(O)c2c(c1)C(C1c3cc(C)cc(O)c3C(=O)c3c(O)cc(O)cc31)c1cc(O)cc(O)c1C2=O (stereo not shown) [Emodin Bianthrone (mixed), emodin bianthrone]",Percent Inhibition of Plaque Numbers (Compared to Virus Controls),"[1]; 0.01 μg/ml, Example 2",0%
same,Percent Inhibition of Plaque Numbers (Compared to Virus Controls),"[1]; 0.032 μg/ml, Example 2",0%
same,Percent Inhibition of Plaque Numbers (Compared to Virus Controls),"[1]; 0.1 μg/ml, Example 2",0%
same,Percent Inhibition of Plaque Numbers (Compared to Virus Controls),"[1]; 0.32 μg/ml, Example 2",0%
same,Percent Inhibition of Plaque Numbers (Compared to Virus Controls),"[1]; 1.0 μg/ml, Example 2",100%
same,Percent Inhibition of Plaque Numbers (Compared to Virus Controls),"[1]; 3.2 μg/ml, Example 2",toxic
same,Percent Inhibition of Plaque Numbers (Compared to Virus Controls),[1]; [9],toxic
same,Activity in initial screening against HCMV in vitro,[1],active
same,Activity against HCMV,[1]; [15],show activity; also recorded: good biological activity
same,Activity against DHPG resistant HCMV strain,[2],retain essentially the same activity
same,Plaque reduction,[3]; 4 hour exposure to the cells,~60%
same,Exposure time at which complete inhibition of plaques is seen,[3]; concentration chosen to cause 100% plaque reduction on full exposure,6 h
same,Antiviral effect,[3]; only 2 hours of exposure,no effect
same,Virucidal activity against HCMV,"HCMV, strain AD-169",negligible virucidal activity
same,CD50,"MRC-5 cells; Example 2, cells exposed 6 or more days",1.1 µg/mL
same,CD50,MRC-5 cells; [6],1.8 µg/mL
same,CD50,MRC-5 cells; [7],1.1 µg/mL
same,CD50,MRC-5 cells; [8],1.8 µg/mL
"Cc1cc(O)c2c(c1)C(=O)c1cc(O)cc(O)c1C2=O [Emodin, emodin]",Number of Plaques,[1]; [16],79
same,Number of Plaques,[1]; [17],72
same,Number of Plaques,[1]; [18],78
same,Number of Plaques,[1]; [19],22
same,Number of Plaques,[1]; [20],0
same,Number of Plaques,[1]; [21],0
same,Percent Inhibition of Plaque Numbers (Compared to Virus Controls),[1]; [9],toxic
same,inhibition at 0.0032 µg/mL,"[1]; Example 1, DMSO stock",0%
same,inhibition at 0.01 µg/mL,[1]; [10],0%
same,inhibition at 0.032 µg/mL,[1]; [11],0%
same,inhibition at 0.1 µg/mL,[1]; [22],9%
same,inhibition at 0.1 µg/mL,[1]; [12],0%
same,inhibition at 0.32 µg/mL,[1]; [23],1%
same,inhibition at 0.32 µg/mL,[1]; [13],0%
same,inhibition at 1 µg/mL,[1]; [24],72%
same,inhibition at 1 µg/mL,[1]; [14],39%
same,inhibition at 3.2 µg/mL,[1]; [25],100%
same,inhibition at 3.2 µg/mL,"[1]; Human betaherpesvirus 5, AD169, MRC5, 3.2 μg/ml, Example 2, read-out: Percent Inhibition of Plaque Numbers (Compared to Virus Controls)",100%
same,inhibition at 10 µg/mL,[1]; [26],100%
same,Activity against HCMV,[1]; [15],show activity
same,Activity against HCMV,"[1]; statement in words on the plaque reduction results, listed as emodin",anti-HCMV activity
same,Activity against DHPG resistant HCMV strain,[2],retain essentially the same activity
same,Percent Inhibition Compared to Controls,[2],toxic
same,inhibition at 0.01 µg/mL,[2],0%
same,inhibition at 0.032 µg/mL,[2],0%
same,inhibition at 0.1 µg/mL,[2],0%
same,inhibition at 0.32 µg/mL,[2],0%
same,inhibition at 1 µg/mL,[2],46%
same,inhibition at 3.2 µg/mL,[2],100%
same,CD50,"MRC-5 cells; human, 4 days",3.4 µg/mL
"Cc1cc(O)c2c(=O)c3c(O)cc(O)c4c5c(O)cc(O)c6c(=O)c7c(O)cc(C)c8c1c2c(c34)c(c78)c65 [Hypericin, hypericin]",Number of Plaques,[1]; [16],72
same,Number of Plaques,[1]; [17],72
same,Number of Plaques,[1]; [18],53
same,Number of Plaques,[1]; [19],53
same,Number of Plaques,[1]; [20],6
same,Number of Plaques,[1]; [21],0
same,inhibition at 0.0032 µg/mL,"[1]; Example 1, DMSO stock",9%
same,inhibition at 0.01 µg/mL,[1]; [10],0%
same,inhibition at 0.032 µg/mL,[1]; [11],0%
same,inhibition at 0.1 µg/mL,[1]; [22],9%
same,inhibition at 0.1 µg/mL,[1]; [12],0%
same,inhibition at 0.32 µg/mL,[1]; [23],33%
same,inhibition at 0.32 µg/mL,[1]; [13],0%
same,inhibition at 1 µg/mL,[1]; [24],33%
same,inhibition at 1 µg/mL,[1]; [14],63%
same,inhibition at 3.2 µg/mL,[1]; [25],92%
same,inhibition at 10 µg/mL,[1]; [26],100%
same,Activity in initial screening against HCMV in vitro,[1],active
same,CD50,3T3 cells,>10 µg/mL
same,inhibition at 10 µg/mL,[2],98%
same,inhibition at 0.01 µg/mL,[2],0%
same,inhibition at 0.032 µg/mL,[2],0%
same,inhibition at 0.1 µg/mL,[2],0%
same,inhibition at 0.32 µg/mL,[2],18%
same,inhibition at 1 µg/mL,[2],52%
same,inhibition at 3.2 µg/mL,[2],93%
same,% Reduction,[4]; 0.1 μg/ml,0%
same,Number of Plaques,[4]; 0.1 μg/ml,19
same,% Reduction,[4]; 0.32 μg/ml (row r14),0%
same,Number of Plaques,[4]; 0.32 μg/ml (row r14),22
same,% Reduction,[4]; [27],0%
same,Number of Plaques,[4]; [27],25
same,% Reduction,[4]; 1.0 μg/ml,0%
same,Number of Plaques,[4]; 1.0 μg/ml,19
same,% Reduction,[4]; 3.2 μg/ml,0%
same,Number of Plaques,[4]; 3.2 μg/ml,15
same,% Reduction,[4]; 10 μg/ml,100%
same,Number of Plaques,[4]; 10 μg/ml,0
same,CD50,"MRC-5 cells; Example 1, DMSO stock",≈10 μg/ml
same,CD50,MRC-5 cells; [6],˜10 μg/ml
